Values of other authors, collected in publication PMC9851200, “Multiparameter phenotypic screening for endogenous TFEB and TFE3 translocation identifies novel chemical series modulating lysosome function” (Autophagy, 2022).

Columns and labels:
Design in all cases: method as in original PKIS2 published data
[1] = target: T1, kinases (KINOMEscan panel) (Homo sapiens, UniProt O75385); details: Published KINOMEscan; ref original PKIS2 published data; cited from earlier work
T1 sequence (O75385 1-1050): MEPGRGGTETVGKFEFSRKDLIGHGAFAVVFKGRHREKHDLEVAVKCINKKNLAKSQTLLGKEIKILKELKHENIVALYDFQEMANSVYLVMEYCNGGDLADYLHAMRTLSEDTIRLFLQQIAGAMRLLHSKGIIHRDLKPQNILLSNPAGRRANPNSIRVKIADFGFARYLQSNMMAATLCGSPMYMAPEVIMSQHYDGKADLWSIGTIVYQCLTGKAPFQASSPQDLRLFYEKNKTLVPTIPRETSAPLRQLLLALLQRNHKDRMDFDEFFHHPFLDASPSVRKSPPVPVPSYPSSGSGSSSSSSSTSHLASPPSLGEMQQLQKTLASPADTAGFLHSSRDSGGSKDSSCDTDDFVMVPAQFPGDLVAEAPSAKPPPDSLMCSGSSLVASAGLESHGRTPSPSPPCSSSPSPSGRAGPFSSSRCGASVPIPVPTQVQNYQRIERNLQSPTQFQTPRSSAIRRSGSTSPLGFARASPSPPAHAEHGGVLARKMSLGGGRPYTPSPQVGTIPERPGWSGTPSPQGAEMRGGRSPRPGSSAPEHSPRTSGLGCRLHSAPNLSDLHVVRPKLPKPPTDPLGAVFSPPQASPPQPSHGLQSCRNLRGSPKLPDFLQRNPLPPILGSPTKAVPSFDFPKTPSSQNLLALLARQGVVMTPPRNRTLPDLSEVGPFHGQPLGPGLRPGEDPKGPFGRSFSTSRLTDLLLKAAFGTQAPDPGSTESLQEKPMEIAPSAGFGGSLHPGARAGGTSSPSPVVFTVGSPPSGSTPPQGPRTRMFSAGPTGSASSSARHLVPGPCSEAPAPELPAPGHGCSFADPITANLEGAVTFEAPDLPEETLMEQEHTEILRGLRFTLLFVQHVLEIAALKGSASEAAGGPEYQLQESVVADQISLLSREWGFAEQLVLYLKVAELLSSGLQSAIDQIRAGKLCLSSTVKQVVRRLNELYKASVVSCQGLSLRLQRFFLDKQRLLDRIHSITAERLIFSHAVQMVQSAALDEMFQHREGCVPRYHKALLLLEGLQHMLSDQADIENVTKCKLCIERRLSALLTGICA

[2] = target: kinases (KINOMEscan panel) (Homo sapiens, UniProt P11802); details: Published KINOMEscan, ref original PKIS2 published data, cited from earlier work
[3] = target: kinases (KINOMEscan panel) (Homo sapiens, UniProt P17612); details: kinase PRKACA; Published KINOMEscan; ref original PKIS2 published data; cited from earlier work
[4] = target: kinases (KINOMEscan panel) (Homo sapiens, UniProt Q14012); details: CAMK1; Published KINOMEscan; ref original PKIS2 published data; cited from earlier work
[5] = target: kinases (KINOMEscan panel) (Homo sapiens, UniProt Q8NEV4); details: kinase MYO3A; Published KINOMEscan; ref original PKIS2 published data; cited from earlier work
[6] = target: T2, kinases (KINOMEscan panel) (Homo sapiens, UniProt Q9BXA7); details: kinase TSSK1B; Published KINOMEscan; ref original PKIS2 published data; cited from earlier work
T2 sequence (Q9BXA7 1-367): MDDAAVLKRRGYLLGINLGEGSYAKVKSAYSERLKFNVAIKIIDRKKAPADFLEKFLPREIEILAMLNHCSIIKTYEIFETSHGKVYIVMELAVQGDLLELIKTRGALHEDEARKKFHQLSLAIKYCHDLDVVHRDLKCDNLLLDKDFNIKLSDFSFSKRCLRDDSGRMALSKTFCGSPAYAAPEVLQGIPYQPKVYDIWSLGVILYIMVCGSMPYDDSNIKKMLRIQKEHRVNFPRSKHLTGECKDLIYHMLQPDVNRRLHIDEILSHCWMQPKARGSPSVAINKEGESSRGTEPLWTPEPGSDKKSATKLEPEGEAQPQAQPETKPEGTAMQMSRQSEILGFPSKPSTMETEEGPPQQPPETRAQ

[7] = target: kinases (KINOMEscan panel) (Homo sapiens, UniProt Q9UKE5); details: TNIK; Published KINOMEscan; ref original PKIS2 published data; cited from earlier work
[8] = target: T3, kinases (KINOMEscan panel) (Homo sapiens, UniProt Q9Y2U5); details: MAP3K2; Published KINOMEscan; ref original PKIS2 published data; cited from earlier work
T3 sequence (Q9Y2U5 1-619): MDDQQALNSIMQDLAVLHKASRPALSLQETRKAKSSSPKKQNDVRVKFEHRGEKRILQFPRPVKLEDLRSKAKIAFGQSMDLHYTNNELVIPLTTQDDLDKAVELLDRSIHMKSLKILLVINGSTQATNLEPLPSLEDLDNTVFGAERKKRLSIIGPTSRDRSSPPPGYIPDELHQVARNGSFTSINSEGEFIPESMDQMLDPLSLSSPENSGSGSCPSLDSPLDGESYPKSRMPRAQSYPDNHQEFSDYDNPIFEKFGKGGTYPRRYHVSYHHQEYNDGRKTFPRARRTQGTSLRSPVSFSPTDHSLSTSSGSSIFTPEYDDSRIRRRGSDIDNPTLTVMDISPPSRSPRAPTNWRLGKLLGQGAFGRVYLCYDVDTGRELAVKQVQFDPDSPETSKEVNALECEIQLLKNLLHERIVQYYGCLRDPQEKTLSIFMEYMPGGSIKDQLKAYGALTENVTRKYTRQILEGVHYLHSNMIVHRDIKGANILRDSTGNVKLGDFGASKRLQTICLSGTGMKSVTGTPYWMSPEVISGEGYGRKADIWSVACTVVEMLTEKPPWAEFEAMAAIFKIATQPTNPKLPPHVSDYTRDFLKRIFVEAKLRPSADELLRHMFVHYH

[9] = target: kinases (KINOMEscan panel) (Homo sapiens, UniProt Q9Y3S1); details: WNK2; Published KINOMEscan; ref original PKIS2 published data; cited from earlier work
kinases (KINOMEscan panel) (Homo sapiens, UniProt Q9Y3S1), sequence (Q9Y3S1 whole entry): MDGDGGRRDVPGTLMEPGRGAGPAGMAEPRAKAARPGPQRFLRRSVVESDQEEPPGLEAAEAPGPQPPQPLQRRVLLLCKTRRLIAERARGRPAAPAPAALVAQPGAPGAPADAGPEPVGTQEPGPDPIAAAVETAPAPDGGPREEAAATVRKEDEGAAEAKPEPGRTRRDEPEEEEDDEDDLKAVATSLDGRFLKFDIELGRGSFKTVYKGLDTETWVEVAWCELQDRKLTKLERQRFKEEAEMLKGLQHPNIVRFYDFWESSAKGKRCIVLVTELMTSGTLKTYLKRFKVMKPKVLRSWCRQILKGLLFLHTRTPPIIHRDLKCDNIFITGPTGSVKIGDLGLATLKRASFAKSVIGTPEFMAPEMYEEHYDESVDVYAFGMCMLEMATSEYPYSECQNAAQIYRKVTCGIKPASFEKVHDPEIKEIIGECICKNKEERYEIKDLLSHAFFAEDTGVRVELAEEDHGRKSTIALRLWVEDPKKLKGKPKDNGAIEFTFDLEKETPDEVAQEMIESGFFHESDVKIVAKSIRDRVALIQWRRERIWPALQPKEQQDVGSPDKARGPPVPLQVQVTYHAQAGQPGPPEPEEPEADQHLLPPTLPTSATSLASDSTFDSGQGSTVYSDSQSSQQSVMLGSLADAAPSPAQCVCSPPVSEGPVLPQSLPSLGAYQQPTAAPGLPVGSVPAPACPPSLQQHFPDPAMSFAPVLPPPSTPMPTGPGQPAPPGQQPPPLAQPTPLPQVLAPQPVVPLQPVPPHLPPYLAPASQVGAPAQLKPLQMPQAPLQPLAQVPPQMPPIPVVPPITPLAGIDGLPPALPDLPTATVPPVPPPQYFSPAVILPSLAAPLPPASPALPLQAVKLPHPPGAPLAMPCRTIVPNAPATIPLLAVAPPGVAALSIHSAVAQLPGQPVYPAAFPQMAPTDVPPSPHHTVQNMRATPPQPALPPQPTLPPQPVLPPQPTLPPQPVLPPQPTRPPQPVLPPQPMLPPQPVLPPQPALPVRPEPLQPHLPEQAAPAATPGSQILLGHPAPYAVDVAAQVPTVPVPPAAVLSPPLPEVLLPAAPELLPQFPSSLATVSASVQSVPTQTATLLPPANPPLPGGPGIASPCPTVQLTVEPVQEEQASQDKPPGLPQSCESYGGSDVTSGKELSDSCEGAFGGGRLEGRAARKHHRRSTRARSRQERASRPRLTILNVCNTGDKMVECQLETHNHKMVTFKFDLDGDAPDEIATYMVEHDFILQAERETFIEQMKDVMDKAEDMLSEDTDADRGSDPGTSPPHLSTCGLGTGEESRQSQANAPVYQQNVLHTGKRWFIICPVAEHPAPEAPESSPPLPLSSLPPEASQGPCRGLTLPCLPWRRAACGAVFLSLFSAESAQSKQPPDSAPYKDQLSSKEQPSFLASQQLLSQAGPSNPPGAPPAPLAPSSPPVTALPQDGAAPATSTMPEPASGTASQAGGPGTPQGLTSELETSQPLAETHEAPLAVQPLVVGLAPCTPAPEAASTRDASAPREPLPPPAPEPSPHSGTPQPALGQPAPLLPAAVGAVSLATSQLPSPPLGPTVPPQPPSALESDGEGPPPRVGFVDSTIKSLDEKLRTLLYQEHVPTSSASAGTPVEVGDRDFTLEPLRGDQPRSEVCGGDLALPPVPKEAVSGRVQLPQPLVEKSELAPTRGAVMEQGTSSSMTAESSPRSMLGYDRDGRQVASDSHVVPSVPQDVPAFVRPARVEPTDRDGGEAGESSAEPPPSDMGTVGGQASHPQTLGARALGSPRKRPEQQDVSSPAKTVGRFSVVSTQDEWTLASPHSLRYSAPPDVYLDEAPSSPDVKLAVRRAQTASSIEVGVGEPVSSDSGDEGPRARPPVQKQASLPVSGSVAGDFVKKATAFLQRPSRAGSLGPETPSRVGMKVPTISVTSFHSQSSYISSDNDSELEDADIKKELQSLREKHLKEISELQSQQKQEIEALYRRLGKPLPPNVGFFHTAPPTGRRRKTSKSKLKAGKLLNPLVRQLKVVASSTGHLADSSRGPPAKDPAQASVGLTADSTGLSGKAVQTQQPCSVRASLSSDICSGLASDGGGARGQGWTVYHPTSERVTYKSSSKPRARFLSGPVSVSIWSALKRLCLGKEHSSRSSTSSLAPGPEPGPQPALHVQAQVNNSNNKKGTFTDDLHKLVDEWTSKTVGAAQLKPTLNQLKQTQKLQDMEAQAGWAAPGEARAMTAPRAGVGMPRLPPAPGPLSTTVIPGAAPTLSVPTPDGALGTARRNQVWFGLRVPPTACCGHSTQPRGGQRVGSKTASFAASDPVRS

kinases (KINOMEscan panel) (Homo sapiens, UniProt P11802), sequence (P11802 whole entry): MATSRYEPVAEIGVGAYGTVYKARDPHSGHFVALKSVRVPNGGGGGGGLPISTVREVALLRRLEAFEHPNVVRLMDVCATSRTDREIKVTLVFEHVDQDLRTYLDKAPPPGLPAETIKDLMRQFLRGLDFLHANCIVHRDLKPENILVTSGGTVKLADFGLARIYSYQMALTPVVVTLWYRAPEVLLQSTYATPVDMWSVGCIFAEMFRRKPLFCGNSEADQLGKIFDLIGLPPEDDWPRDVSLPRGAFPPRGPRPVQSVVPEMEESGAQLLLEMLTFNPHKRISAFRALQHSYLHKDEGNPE
kinases (KINOMEscan panel) (Homo sapiens, UniProt Q9UKE5), sequence (Q9UKE5 whole entry): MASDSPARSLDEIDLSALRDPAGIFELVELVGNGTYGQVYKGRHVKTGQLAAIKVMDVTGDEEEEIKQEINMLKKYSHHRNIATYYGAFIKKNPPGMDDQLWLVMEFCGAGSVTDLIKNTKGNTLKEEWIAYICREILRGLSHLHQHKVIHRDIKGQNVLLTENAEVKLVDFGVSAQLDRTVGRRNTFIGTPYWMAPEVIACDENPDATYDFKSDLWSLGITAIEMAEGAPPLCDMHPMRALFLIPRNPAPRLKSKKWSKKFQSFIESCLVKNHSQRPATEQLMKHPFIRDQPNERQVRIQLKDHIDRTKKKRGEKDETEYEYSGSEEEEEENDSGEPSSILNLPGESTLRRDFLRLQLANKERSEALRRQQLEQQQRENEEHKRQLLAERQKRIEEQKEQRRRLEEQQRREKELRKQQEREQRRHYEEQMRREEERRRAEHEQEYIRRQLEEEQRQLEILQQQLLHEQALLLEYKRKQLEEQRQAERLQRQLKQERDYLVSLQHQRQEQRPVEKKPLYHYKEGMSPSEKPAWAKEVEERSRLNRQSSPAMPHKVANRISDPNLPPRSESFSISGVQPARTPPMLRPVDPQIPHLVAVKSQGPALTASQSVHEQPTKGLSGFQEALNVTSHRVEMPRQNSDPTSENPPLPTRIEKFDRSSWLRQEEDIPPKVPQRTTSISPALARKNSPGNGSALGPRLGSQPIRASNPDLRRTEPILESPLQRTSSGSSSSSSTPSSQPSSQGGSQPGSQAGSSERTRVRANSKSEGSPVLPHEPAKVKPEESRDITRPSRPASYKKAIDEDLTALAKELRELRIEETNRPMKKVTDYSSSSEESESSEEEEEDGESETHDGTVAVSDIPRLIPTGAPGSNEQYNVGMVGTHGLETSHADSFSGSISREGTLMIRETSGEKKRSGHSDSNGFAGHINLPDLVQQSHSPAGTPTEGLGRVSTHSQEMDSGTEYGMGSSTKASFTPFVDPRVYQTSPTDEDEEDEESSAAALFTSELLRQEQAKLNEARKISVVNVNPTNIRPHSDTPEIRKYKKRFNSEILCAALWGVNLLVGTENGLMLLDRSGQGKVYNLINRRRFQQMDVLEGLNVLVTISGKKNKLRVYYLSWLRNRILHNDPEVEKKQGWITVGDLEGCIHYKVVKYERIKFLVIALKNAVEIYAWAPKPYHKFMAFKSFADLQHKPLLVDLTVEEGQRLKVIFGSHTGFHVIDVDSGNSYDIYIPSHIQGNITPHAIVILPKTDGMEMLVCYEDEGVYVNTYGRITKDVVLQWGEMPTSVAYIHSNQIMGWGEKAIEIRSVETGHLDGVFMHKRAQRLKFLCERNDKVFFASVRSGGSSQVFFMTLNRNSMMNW
kinases (KINOMEscan panel) (Homo sapiens, UniProt Q14012), sequence (Q14012 whole entry): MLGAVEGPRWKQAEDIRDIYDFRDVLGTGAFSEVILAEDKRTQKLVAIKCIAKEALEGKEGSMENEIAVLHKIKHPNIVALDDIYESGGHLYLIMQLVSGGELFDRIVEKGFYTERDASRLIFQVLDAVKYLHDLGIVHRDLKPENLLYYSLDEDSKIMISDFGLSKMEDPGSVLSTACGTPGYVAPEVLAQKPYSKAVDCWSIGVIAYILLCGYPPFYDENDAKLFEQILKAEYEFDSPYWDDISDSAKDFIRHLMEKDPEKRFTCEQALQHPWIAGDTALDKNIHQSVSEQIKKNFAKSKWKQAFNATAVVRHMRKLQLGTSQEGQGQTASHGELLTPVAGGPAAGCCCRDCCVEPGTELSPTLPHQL

Cc1cccc(-c2nc(Nc3ccncc3)c3ccccc3n2)n1 [NK215]
KINOMEscan ULK1 [1]: 0 | KINOMEscan CDK4-cyclinD1 (???) CCND1 ([2]; CDK4-cyclinD1 (???) CCND1): 13 | KINOMEscan CDK4-cyclinD3 ([2]; kinase CDK4-cyclinD3): 0 | KINOMEscan CDK4 ([2]; kinase CDK4): 0 | KINOMEscan PRKACA [3]: 23 | KINOMEscan CAMK1 [4]: 0 | KINOMEscan MYO3A [5]: 0 | KINOMEscan TSSK1B [6]: 0 | KINOMEscan TNIK [7]: 29 | KINOMEscan MAP3K2 [8]: 0 | KINOMEscan WNK2 [9]: 0
